Assay in all cases: relative viability (nuclei count vs DMSO), 5 days (fraction); higher = more cells survive
Compound in assay [1]: CC(O)(CS(=O)(=O)c1ccc(F)cc1)C(=O)Nc1ccc(C#N)c(C(F)(F)F)c1 [Bicalutamide] + N=C(N)NC(=N)NCCc1ccccc1 [Phenformin] (partner 250 µM)
A digest of the protocol:
(§1)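 Nuclei were stained with Hoechst during a one-step fixation (final 0.05% Triton X-100, 1% formaldehyde, 1 ug/ml Hoechst) carried out 5 days after dosing, then counted on 4× images. The cells, lung cancer lines in 1536-well plates, had been dosed by pin tool the day after seeding with one drug alone or a fixed anchor-drug dose plus five library-drug doses (not always all listed) in √10 steps. Relative viability is the nuclei count in treated wells divided by that in vehicle wells, and each value is the median of duplicate plates.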

Compound in assay [2]: C(C(=O)C(=O)O)Br [Bromopyruvate] + C[C@]1(O)C[C@@H](c2nc(-c3ccc4ccc(-c5ccccc5)nc4c3)c3c(N)nccn32)C1 [Linsitinib] (partner 1 µM)
An outline of the steps:
as §1

Compound in the assay “Bromopyruvate + Olaparib”: C(C(=O)C(=O)O)Br [Bromopyruvate] + O=C(c1cc(Cc2n[nH]c(=O)c3ccccc23)ccc1F)N1CCN(C(=O)C2CC2)CC1 [Olaparib] (partner 8 µM)
An outline of the steps: as §1

Compound in assay [3]: CC(O)(CS(=O)(=O)c1ccc(F)cc1)C(=O)Nc1ccc(C#N)c(C(F)(F)F)c1 [Bicalutamide] + CC(=O)Nc1cccc(-n2c(=O)n(C3CC3)c(=O)c3c(Nc4ccc(I)cc4F)n(C)c(=O)c(C)c32)c1 [Trametinib] (partner 0.02 µM)
An outline of the steps: as §1

With UMC-11, the relative viability in assay [1] (first compound 0.08 µM) was found to be 0.35; in assay [1] (first compound 0.253 µM), 0.319; in assay [1] (first compound 0.8 µM), 0.372; in assay [1] (first compound 2.53 µM) it was 0.302; in assay [2] (first compound 1 µM), 1.03; in assay [2] (first compound 3.162 µM), 1.08. The relative viability was 0.884 in assay [2] (first compound 10 µM); 0.987 in assay [2] (first compound 31.62 µM); 1.03 in assay [2] (first compound 100 µM); 0.366 with Bromopyruvate + Olaparib (first compound 1 µM); 0.356 with Bromopyruvate + Olaparib (first compound 3.162 µM); 0.374 in the assay with Bromopyruvate + Olaparib (first compound 10 µM). Further, the relative viability in the assay with Bromopyruvate + Olaparib (first compound 31.62 µM) turned out to be 0.35; with Bromopyruvate + Olaparib (first compound 100 µM) it was 0.393; in assay [3] (first compound 0.08 µM) it was 0.771; in assay [3] (first compound 0.253 µM), 0.572; in assay [3] (first compound 0.8 µM), 0.808; in assay [3] (first compound 2.53 µM), 0.686.

Source of the values: the supplement of paper PMC10307832.
